Test [1] has as its system locomotor activity in normal rats. The test can be described thus: Locomotor activity in normal rats (grid line crossings). The test is classed as in vivo, Male Wistar rats. Particulars: for Locomotor (Peak) / Locomotor (Total): normal rats, dose not given; for Locomotor (Peak) / Locomotor (Total) / Effect on locomotor activity: s.c.; for Locomotor (Peak): at time of peak effect; for Locomotor (Total): total (cumulative) effect; for Ratio (Peak): ratio locomotor/stereotypy at time of peak effect; for Ratio (Total): ratio locomotor/stereotypy, total effect; for Effect on locomotor activity: whole dose range tested (amphetamine 0.1-5, fusaric acid 20-80, amphetaminils 0.1-10 mg/kg), 300 min. The method, then:
(§1) Male Wistar rats (n=4 per group) were randomly allocated to each drug treatment group. Drugs were administered such that, with the exception of fusaric acid, each rat in each group received all doses of the drug or vehicle in a semi random manner according to the modified Latin Square in Table 1. Compounds were administered at the doses: 0.1, 1 and 10 mg/kg s.c. in 100% DMSO (vehicle). Amphetamine was administered at 0.1, 1 and 5 mg/kg s.c. in saline (vehicle). Fusaric acid was administered at 20, 40 and 80 mg/kg s.c. in saline (vehicle). Rats received each dose of fusaric acid (20, 40 and 80 mg/kg), doses given in order, starting with vehicle. A one-week interval was provided between doses.
(§2) At the start of the experiment, rats were placed in standard perspex behaviour boxes with a visible grid on the floor to allow determination of locomotor activity. The animals were allowed to acclimatise to their environment for 1 hour prior to drug/saline administration. Following drug administration animals were returned to the behaviour cages and locomotor activity was assessed for a further 5 hours or until baseline (zero activity for 30 minutes) was achieved, whichever was sooner. Locomotor activity was assessed by videoing the rats throughout the experiment, and counting the number of times a rat crossed a grid line over a period of 5 minutes every 10 minutes. Throughout the experiment animals were scored for stereotyped behaviours for 15 seconds every 10 minutes by a trained observer using the scoring methods described in Table 2.
Locomotor activity Data The mean and standard error for locomotor activity during 10 minutes for each rat at each time point was determined. […] Cumulative activity during the 300 min was also calculated, and the effect of dose of drug was analyzed by 1 way repeated measures ANOVA followed by Dunnett's test (GraphPad Prizm). Data was also analysed for significant fit to a sigmoidal-shaped log dose-response curve using non-linear regression analysis (GraphPad Prizm).

Test [2] concerns stereotyped behaviour in normal rats. Description: Induction of stereotyped behaviour in normal rats (stereotypy score 0-7). The format is in vivo, Male Wistar rats. The note with it: for Stereotypy (Peak) / Stereotypy (Total): normal rats, dose not given; for Stereotypy (Peak) / Stereotypy (Total) / Effect on stereotypy: s.c.; for Stereotypy (Peak): stereotypy score at time of peak effect; for Stereotypy (Total): total stereotypy score; for Effect on stereotypy: whole dose range tested (amphetamine 0.1-5, fusaric acid 20-80, amphetaminils 0.1-10 mg/kg), 300 min. The method, then: as §1, §2
The mean and standard error for stereotypy activity for 15 seconds every 10 minutes for each rat at each time point was determined. […] Cumulative activity during the 300 min was also calculated, and the effect of dose of drug was analyzed by Kruskall Wallis one-way ANOVA (GraphPad Prizm). Data was also analysed for significant fit to a sigmoidal-shaped log dose-response curve using non-linear regression analysis (GraphPad Prizm)

Here are results for three compounds from patent publication US20030118646A1, “(R, S'),(R, R')-amphetaminil, compositions and uses thereof” (priority 2001, published 2003).

On to `CC(Cc1ccccc1)NC(C#N)c1ccccc1` (racemic) [Racemic amphetaminil, alpha-[(1-methyl-2-phenylethyl)amino]benzeneacetonitrile], for which, in test [1], the “Locomotor (Peak)” value is on record as 37, the “Locomotor (Total)” value is reported as 560, the “Ratio (Peak)” value was 7.4 and the “Ratio (Total)” value is recorded as 4.9. Besides, the “Effect on locomotor activity” value in test [1] is listed as “increased locomotor activity only at the highest dose of 10 mg/kg”. Further, the Duration of stereotypy entry in test [2] (10 mg/kg s.c.) is recorded as “sustained for the duration of the experiment”. Also, in test [2] (0.1-10 mg/kg s.c., Kruskall Wallis), the “Differences in overall stereotypy between dose groups” value is “did not reach statistical significance”. Moreover, in test [2], the “Stereotypy (Peak)” value stood at 5.0, the “Stereotypy (Total)” value is reported as 115 and the Effect on stereotypy result is recorded as “increased stereotypy in a log dose-related manner”.

On to `C[C@H](Cc1ccccc1)NC(C#N)c1ccccc1` (stereo partly drawn) [(R,R′), (R,S′)-amphetaminil, alpha-[(1R-methyl-2-phenylethyl)amino]-benzeneacetonitrile], for which, in test [1] (at both the time of peak effect and total effect), the “Locomotor/stereotypy ratio compared with racemic amphetaminil” value is listed as “higher ratio”. In test [1], the “Locomotor (Peak)” value turned out to be 62, the “Locomotor (Total)” value amounted to 625, the “Ratio (Peak)” value was found to be 18.8 and the “Ratio (Total)” value is given as 11. Also, the “Effect on locomotor activity” value in test [1] is “increased locomotor activity only at the highest dose of 10 mg/kg”. For the same compound, the “Stereotypy compared with racemic amphetaminil” value in test [2] (FIGS. 7 and 8) is listed as “less stereotypy than the racemic form of amphetaminil”. Also, in test [2], the “Stereotypy (Peak)” value is on record as 3.3, the “Stereotypy (Total)” value amounted to 57 and the Effect on stereotypy result was “tended to increase stereotypy at 10 mg/kg”.

With `CC(N)Cc1ccccc1` (stereo not shown) [Amphetamine], in test [1] (5 mg/kg s.c.), the “Time of maximum effect on locomotor activity after administration” value stood at 30 min. Besides, the “Cumulative locomotor activity during the 300 min” value in test [1] (5 mg/kg s.c., compared to vehicle) is listed as “significantly increased”. Further, in test [1], the “Locomotor (Peak)” value turned out to be 125, the “Locomotor (Total)” value was determined as 850, the “Ratio (Peak)” value is reported as 25 and the “Ratio (Total)” value is 10.5. For the same compound, in test [1], the “Effect on locomotor activity” value is recorded as “dose-related increase in locomotor activity”. Besides, the “Overall stereotypy during the 300 min” value in test [2] (5 mg/kg s.c.) is on record as “tended to increase overall stereotypy”. In addition, in test [2], the “Stereotypy (Peak)” value worked out at 5, the “Stereotypy (Total)” value was 81 and the Effect on stereotypy entry was “log dose-related increase stereotypy”.
